Measurements: the Deep4Chem optical property database

Experiment: solvent given as SMILES

O=c1c2ccccc2c2nc3cc4c(C#C[Si](C5CCCCC5)(C5CCCCC5)C5CCCCC5)c5cc6nc7c8ccccc8c(=O)c8ccccc8c7nc6cc5c(C#C[Si](C5CCCCC5)(C5CCCCC5)C5CCCCC5)c4cc3nc2c2ccccc12
absorption maximum (in ClCCl): 731 nm

CCC(CC)n1c2ccccc2c2cc3c(cc21)c1ccccc1n3C(CC)CC
absorption maximum (in ClC(Cl)Cl): 419 nm

COC(=O)c1nc2c(N)nc(N(C)C)nc2n1Cc1ccccc1
absorption maximum (in C1COCCO1): 340 nm
absorption maximum (in CC#N): 342 nm
absorption maximum (in CO): 345 nm
absorption maximum (in ClCCl): 338 nm

CC(C)(C)NC(=O)c1ccc2ccc3cccc4c3c2c1c1c2ccccc2c2ccccc2c41
absorption maximum (in ClCCl): 392 nm

CCCN1C(=O)C(=CC=CC=C2Oc3ccccc3N2CCCS(=O)(=O)[O-])C(=O)N(CCC)C1=S
absorption maximum (in C1COCCO1): 565 nm
absorption maximum (in CC(C)=O): 559 nm
absorption maximum (in CCCCO): 562 nm
absorption maximum (in CCCO): 561 nm
absorption maximum (in CCO): 558 nm
absorption maximum (in CO): 554 nm
absorption maximum (in ClC(Cl)Cl): 568 nm
absorption maximum (in O): 530 nm

CN(C)c1[se]c(-c2ccccc2)nc1-c1ccccc1
absorption maximum (in ClC(Cl)Cl): 326 nm

COc1ccc(-c2cc(-c3ccc(C)cc3)nc3c(C#N)c(N4CCCC4)nc(N)c23)cc1
absorption maximum (in CC#N): 418 nm
absorption maximum (in CC(C)=O): 420 nm
absorption maximum (in CC(C)O): 414 nm
absorption maximum (in CO): 414 nm
absorption maximum (in ClC(Cl)Cl): 418 nm
absorption maximum (in ClCCl): 422 nm
absorption maximum (in c1ccccc1): 424 nm

CN(C)c1ccc(/C=C/C=C/c2nc3ccccc3o2)cc1
absorption maximum (in C1COCCO1): 411 nm
absorption maximum (in CC#N): 410 nm
absorption maximum (in CC(C)=O): 409 nm
absorption maximum (in CCCCCC): 401 nm
absorption maximum (in CCCCO): 417 nm
absorption maximum (in CCCO): 417 nm
absorption maximum (in CCO): 417 nm
absorption maximum (in CN(C)C=O): 419 nm
absorption maximum (in CO): 417 nm
absorption maximum (in Cc1ccccc1): 413 nm
absorption maximum (in ClC(Cl)(Cl)Cl): 406 nm
absorption maximum (in ClC(Cl)Cl): 414 nm
absorption maximum (in ClCCl): 415 nm
absorption maximum (in OCC(O)CO): 424 nm
absorption maximum (in OCCO): 424 nm
absorption maximum (in c1ccccc1): 411 nm

CN(C)c1ccc(C=C/C=C/C=C/c2ccc(C#N)cc2)cc1
absorption maximum (in C1CCOC1): 420 nm
absorption maximum (in CC#N): 418 nm
absorption maximum (in CCCC#N): 422 nm
absorption maximum (in CCCCCC): 412 nm
absorption maximum (in CCCCOCCCC): 416 nm
absorption maximum (in CCO): 418 nm
absorption maximum (in CCOCC): 416 nm

Cc1ccc(C2=Cc3ccc4ccccc4[n+]3[B-](F)(F)O2)cc1
absorption maximum (in ClC(Cl)Cl): 432 nm

Fc1ccc(C2=C(c3ccc(F)cc3)c3cccc4c3c(cc3nc5ccccc5nc34)O2)cc1
absorption maximum (in ClCCl): 490 nm

CN(C)c1ccc(C2=[N+]3C(=Nc4c(-c5ccccc5)cc(-c5ccc(N(C)C)cc5)n4[B-]3(F)F)C(c3ccccc3)=C2)cc1
absorption maximum (in ClC(Cl)Cl): 799 nm

CC1(C)CC(/C=C/c2ccc(N3CCOCCOCCOCCOCC3)cc2)=CC(=C(C#N)C#N)C1
absorption maximum (in C1CCOC1): 500 nm
absorption maximum (in CC#N): 493 nm
absorption maximum (in CCO): 504 nm
absorption maximum (in CCOC(C)=O): 496 nm
absorption maximum (in ClCCl): 502 nm
absorption maximum (in c1ccccc1): 500 nm

COc1cc(-c2nc3sc4ccccc4c3s2)cc(OC)c1OC
absorption maximum (in CS(C)=O): 358 nm

C#Cc1ccc2cc3c(C)cc(=O)oc3cc2c1
absorption maximum (in CCO): 334 nm

O=c1cc(COc2ccc(I)cc2)c2c(ccc3ccccc32)o1
absorption maximum (in C1CCOC1): 349 nm
absorption maximum (in C1COCCO1): 348 nm
absorption maximum (in CC#N): 348 nm
absorption maximum (in CC(C)=O): 349 nm
absorption maximum (in CCCCO): 350 nm
absorption maximum (in CCCO): 350 nm
absorption maximum (in CCO): 350 nm
absorption maximum (in CCOC(C)=O): 348 nm
absorption maximum (in CN(C)C=O): 350 nm
absorption maximum (in CO): 348 nm
absorption maximum (in Cc1ccccc1): 350 nm
absorption maximum (in ClCCl): 349 nm

CC[N+](CC)=c1ccc2c(-c3ccccc3C(=O)O)c3oc4cc(N)ccc4c3oc-2c1
absorption maximum (in CCO): 572 nm
absorption maximum (in ClCCl): 581 nm
absorption maximum (in O): 581 nm

COCCOCCOCCOCC(COCCOCCOCCOC)Oc1cc(/C=C/c2ccc(/C=C(\C#N)c3ccccc3)cc2)c(OC(COCCOCCOCCOC)COCCOCCOCCOC)cc1/C=C/c1ccc(/C=C(\C#N)c2ccccc2)cc1
absorption maximum (in ClCCl): 433 nm

COc1ccc(C2=C(C)C3=C(c4c(-c5ccccn5)nc5ccccn45)c4c(C)c(-c5ccc(OC)cc5)c(C)n4[B-](F)(F)[N+]3=C2C)cc1
absorption maximum (in ClCCl): 555 nm

N#CC(C#N)=Cc1ccc(-c2ccc(-c3nc4ccccc4s3)c(O)c2)o1
absorption maximum (in ClCCl): 426 nm
absorption maximum (in O): 394 nm

CNc1ccc(/C=C/C(=O)OC)cc1
absorption maximum (in O): 347.28 nm

COc1ccc2cc(C3=[N+]4C(=Nc5c(-c6ccccc6)cc(-c6ccc7cc(OC)ccc7c6)n5[B-]4(F)F)C(c4ccccc4)=C3Br)ccc2c1
absorption maximum (in ClC(Cl)Cl): 695 nm
absorption maximum (in ClCCl): 695 nm

CN(C)c1cc2c(cc1F)c(=O)c1cc(F)c(N3CCCCC3)cc1n2C
absorption maximum (in CCO): 364 nm

CCN(CC)c1ccc2cc(C#N)c(=O)oc2c1
absorption maximum (in ClCCl): 428 nm

CC[N+]1(CC)CN2C(=N1)C(C(=O)O)=Cc1cc(F)ccc12
absorption maximum (in O): 375 nm

CCOC(=O)c1c(-c2cc3cc4c(cc3oc2=O)OC(C)(C)CC4)nn(-c2ccccc2)c1C(=O)OCC
absorption maximum (in ClCCl): 348 nm

c1ccc(N2c3ccc4ccccc4c3-c3c4ccccc4cn[n+]3[B-]2(c2ccccc2)c2ccccc2)cc1
absorption maximum (in Cc1ccccc1): 524 nm

CCN(CC)c1cc2oc3cc(N(CC)CC)c(F)cc3c(=O)c2cc1F
absorption maximum (in CCO): 389 nm

CC1(C)CC(/C=C/c2ccc(-n3c4ccccc4c4ccccc43)cc2)=CC(=C(C#N)C#N)C1
absorption maximum (in C1CCOC1): 408 nm
absorption maximum (in CC#N): 405 nm
absorption maximum (in CCO): 414 nm
absorption maximum (in CCOC(C)=O): 407 nm
absorption maximum (in ClCCl): 410 nm
absorption maximum (in c1ccccc1): 422 nm

COc1cc2c(cc1OC)C1=C[C@H](c3ccccc3)C3(C(C#N)=C(C#N)N1CC2)c1cc(Br)ccc1-c1ccc(Br)cc13
absorption maximum (in ClCCl): 311 nm

O=C1c2cc3ccccc3cc2C2=Nc3ccc4ccccc4[n+]3[B-](F)(F)N12
absorption maximum (in ClCCl): 419 nm

CCCCCCCCCCCCn1cccc1/C=C/c1cc(OCCCC)c(/C=C/c2cccn2CCCCCCCCCCCC)cc1OCCCC
absorption maximum (in Cc1ccccc1): 411 nm

CC1=CC(/C=C/c2ccc([N+](C)(C)C)cc2)=[N+]2C1=C(c1ccc(C#CCO[C@@H]3O[C@H](CO)[C@@H](O)C(O)[C@H]3O)cc1)c1c(C)cc(/C=C/c3ccc([N+](C)(C)C)cc3)n1[B-]2(F)F (stereo partly specified)
absorption maximum (in CC#N): 618 nm

CCOC(=O)CN1C(=O)C2=C(c3ccc(N4CCCCC4)cc3)N(CC(=O)OCC)C(=O)C2=C1c1ccccc1
absorption maximum (in CC#N): 500 nm
absorption maximum (in CS(C)=O): 516 nm
absorption maximum (in Cc1ccccc1): 499 nm

Cc1ccc(C2=C3C=C(I)C=[N+]3[B-](F)(F)n3cccc32)cc1
absorption maximum (in C1CCCCC1): 523.5 nm
absorption maximum (in CC#N): 516.5 nm
absorption maximum (in CCO): 518 nm
absorption maximum (in CCOC(C)=O): 517 nm
absorption maximum (in CO): 516.5 nm
absorption maximum (in OCC(F)(F)F): 513 nm

c1ccc2c(c1)c1ccccc1c1ccccc21
absorption maximum (in ClCCl): 286 nm

CCCCCCCCCCCCN1C(=O)c2c(c3ccc4cc(-c5ccc(C#N)cc5)c(OC)cc4c3c3c2ccc2cc(-c4ccc(C#N)cc4)c(OC)cc23)C1=O
absorption maximum (in ClCCl): 427 nm
